# Activity calls are given as the source filed them.
# Experiments:
# [1] = reduction of Shn3 3'UTR-driven luciferase in osteoblasts – cell-based, Clone20 osteoblasts, firefly luciferase, cherry-picked, dose response (AID 624132); type: functional;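 also: firefly luciferase luminescence from reporter carrying the Shn3 3'UTR in osteoblasts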
# Streptococcus = assay: GAS UMAA2166 growth inhibition – luminescence, BacTiterGlo, counter-screen for streptokinase expression inhibitor project, dose response (AID 1915); type: functional, organism-based;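 also: potency for reduction of bacterial viability or growth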
# [2] = system: Streptococcus sp. 'group A'; assay: Streptococcus pyogenes SK(-)GAS viability under kanamycin – luminescence, BacTiterGlo, confirmation, counter-screen for streptokinase expression inhibitor project, dose response (AID 1900); type: functional, organism-based
# [3] = biological target: Neurotensin receptor type 1 (Homo sapiens, UniProt P30989); type: functional;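 also: Image-based confirmatory dose-response assay measuring agonist activity at NTR1; NTR1-expressing U2OS osteosarcoma cells imaged for beta-arrestin GFP spot formation; agonist potency where compounds increase beta-arrestin recruitment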
# Streptokinase A = biological target: T1, Streptokinase A (Streptococcus pyogenes serotype M1, UniProt P10520); assay: viability-normalized secreted streptokinase activity reduction – plasminogen activation absorbance, OD405, dose response (AID 1914); type: functional, Streptococcus pyogenes M1 GAS;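 also: secreted streptokinase activity via plasminogen activation per viability signal from cell pellet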
# T1 sequence (P10520 whole entry): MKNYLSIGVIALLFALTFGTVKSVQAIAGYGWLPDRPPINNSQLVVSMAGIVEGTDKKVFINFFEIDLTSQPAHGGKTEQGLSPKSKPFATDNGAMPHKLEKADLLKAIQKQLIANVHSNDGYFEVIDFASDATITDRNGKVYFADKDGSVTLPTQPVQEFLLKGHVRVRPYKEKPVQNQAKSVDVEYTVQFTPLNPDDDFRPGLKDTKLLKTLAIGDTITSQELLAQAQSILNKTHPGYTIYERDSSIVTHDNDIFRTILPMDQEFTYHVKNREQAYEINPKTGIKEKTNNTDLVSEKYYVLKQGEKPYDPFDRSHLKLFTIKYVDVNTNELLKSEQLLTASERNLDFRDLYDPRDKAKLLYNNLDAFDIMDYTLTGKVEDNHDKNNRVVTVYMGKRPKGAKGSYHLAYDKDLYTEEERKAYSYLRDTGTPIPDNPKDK
# [4] = loss of viability in HepG2 cells – cell-based, CellTiter-Glo, cherry-picked, cytotoxicity control for Shn3 inhibitor project, dose response (AID 624134); type: functional
# [5] = microbe, parasite or virus in culture; type: functional; details: Mycobacterium tuberculosis
# [6] = viability loss in THP-1 monocytes – THP-1 cells, cytotoxicity control for Vif-APOBEC3G degradation inhibitor project, dose response (AID 1117359); type: functional; details: THP-1
# [7] = non-specific 3'UTR reporter inhibition in Clone20-Shn3RL – cell-based, Renilla luciferase, cherry-picked, counter-screen for Shn3 inhibitor project, dose response (AID 624133); type: functional
# INS1 = assay: INS-1E survival protection against cytokine death – cell-based, luminescence, retest, dose response (AID 449756); type: functional; details: Rattus norvegicus;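 also: cell death triggered by IL-1 beta plus TNF-alpha plus IFN-gamma mixture; protective hits raise ATP signal compared with cytokine alone wells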
# [8] = biological target: T2, Eukaryotic translation initiation factor 2-alpha kinase 3 (Homo sapiens, UniProt Q9NZJ5); assay: Dose response cell-based high-throughput screening assay to measure PERK inhibition. [Related pubchem assays: 1416 ]; type: functional
# T2 sequence (Q9NZJ5 whole entry): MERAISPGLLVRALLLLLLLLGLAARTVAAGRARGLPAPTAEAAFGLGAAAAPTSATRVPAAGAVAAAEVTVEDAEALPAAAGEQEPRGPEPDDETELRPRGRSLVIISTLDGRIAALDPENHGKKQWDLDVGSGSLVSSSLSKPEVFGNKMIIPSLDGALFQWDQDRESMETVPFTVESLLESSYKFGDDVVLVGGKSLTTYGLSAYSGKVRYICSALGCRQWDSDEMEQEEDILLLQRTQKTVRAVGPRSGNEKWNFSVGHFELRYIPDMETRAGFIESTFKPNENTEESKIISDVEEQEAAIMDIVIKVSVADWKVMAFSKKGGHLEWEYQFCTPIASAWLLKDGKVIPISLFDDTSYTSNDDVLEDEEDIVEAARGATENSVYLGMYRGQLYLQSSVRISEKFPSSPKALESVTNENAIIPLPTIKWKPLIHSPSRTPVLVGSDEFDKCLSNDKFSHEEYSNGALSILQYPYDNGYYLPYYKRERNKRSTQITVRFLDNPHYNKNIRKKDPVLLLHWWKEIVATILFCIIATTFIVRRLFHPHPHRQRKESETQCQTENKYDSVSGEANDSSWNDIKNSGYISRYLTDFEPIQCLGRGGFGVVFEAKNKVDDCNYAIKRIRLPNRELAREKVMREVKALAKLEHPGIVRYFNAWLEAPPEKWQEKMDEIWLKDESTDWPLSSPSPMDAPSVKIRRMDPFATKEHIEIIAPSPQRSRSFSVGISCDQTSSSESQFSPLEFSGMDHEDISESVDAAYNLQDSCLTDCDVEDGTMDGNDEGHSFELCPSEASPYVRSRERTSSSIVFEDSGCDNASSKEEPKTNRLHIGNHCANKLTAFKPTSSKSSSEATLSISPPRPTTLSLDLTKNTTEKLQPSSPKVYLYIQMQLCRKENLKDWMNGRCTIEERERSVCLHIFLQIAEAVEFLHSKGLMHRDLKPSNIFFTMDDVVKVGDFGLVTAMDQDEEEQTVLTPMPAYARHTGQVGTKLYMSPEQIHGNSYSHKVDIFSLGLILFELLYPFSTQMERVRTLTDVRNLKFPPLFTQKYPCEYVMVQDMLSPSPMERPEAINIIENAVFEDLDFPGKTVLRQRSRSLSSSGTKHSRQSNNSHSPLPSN
# [9] = biological target: T2, Eukaryotic translation initiation factor 2-alpha kinase 3; assay: Counterscreen assay for PERK inhibitors: Dose response cell-based high throughput screening assay to measure inhibition of PERK at 6 hours. [Related pubchem assays: 1522, 1416 ]; type: functional
# CAAX prenyl protease 2 = CAAX prenyl protease 2 (Saccharomyces cerevisiae S288c, UniProt Q03530); type: biochemical
# [10] = NIH3T3 cell viability loss – ATP luminescence, mouse fibroblasts, counter-screen, dose response (AID 2010); type: functional, cell-based;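 also: cells exposed to compound for about 90 hours before reading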
# [11] = fluconazole-exposed Candida albicans growth modulators – fluorescence, retest, confirmation (AID 2467); type: functional, cell-based
# [12] = Trypanosoma cruzi growth suppression in host cells – NIH3T3 host cells, beta-gal luminescence, confirmation (AID 2044); type: functional, cell-based;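 also: intracellular parasites grown in NIH/3T3 mouse fibroblasts as host cells; luminescent beta-galactosidase reporter signal from transgenic T. cruzi replicating inside host cells; inhibitors lower the luminescence signal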
# [13] = NIH-3T3 fibroblast cytotoxicity, dose response, cytotoxicity control, cell-based, fluorescence, Alamar Blue, secondary assay (AID 2327); type: functional;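 also: NIH-3T3 mouse fibroblasts cultured with fluconazole at 8 µg/mL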
# [14] = biological target: T3, Ubiquitin-conjugating enzyme E2 N (Homo sapiens, UniProt P61088); type: functional;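 also: Dose-response confirmation in a TR-FRET assay detecting UBC13-driven polyubiquitin chain formation, inhibition measured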
# T3 sequence (P61088 whole entry): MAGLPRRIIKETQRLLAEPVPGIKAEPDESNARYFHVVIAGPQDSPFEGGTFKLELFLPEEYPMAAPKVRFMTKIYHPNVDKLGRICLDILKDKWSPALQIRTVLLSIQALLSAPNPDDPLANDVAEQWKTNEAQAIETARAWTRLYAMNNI
# [15] = Luminescence Cell-Based Dose Retest to Confirm Inhibitors of Cancer Stem Cells. [Related pubchem assays (depositor defined):AID2717, AID2721]; type: functional; details: Homo sapiens
# [16] = biological target: Eukaryotic translation initiation factor 4E (Mus musculus, UniProt P63073); assay: blockers of eIF4G binding by eIF4E – biochemical, TR-FRET, dose response (AID 855); type: functional;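 also: potency for disrupting eIF4E binding to eIF4GI seen as loss of FRET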
# [17] = biological target: NACHT, LRR and PYD domains-containing protein 3 (Homo sapiens, UniProt Q96P20); assay: NALP3 inhibitors in yeast, dose response, luminescent (AID 488799); type: functional
# [18] = biological target: T4, Short transient receptor potential channel 4 (Mus musculus, UniProt Q9QUQ5); assay: calcium entry via TRPC4 opening agents – cell-based, HEK293 TRPC4/mu-opioid, Fluo-4 calcium, dose response (AID 434937); type: functional
# T4 sequence (Q9QUQ5 whole entry): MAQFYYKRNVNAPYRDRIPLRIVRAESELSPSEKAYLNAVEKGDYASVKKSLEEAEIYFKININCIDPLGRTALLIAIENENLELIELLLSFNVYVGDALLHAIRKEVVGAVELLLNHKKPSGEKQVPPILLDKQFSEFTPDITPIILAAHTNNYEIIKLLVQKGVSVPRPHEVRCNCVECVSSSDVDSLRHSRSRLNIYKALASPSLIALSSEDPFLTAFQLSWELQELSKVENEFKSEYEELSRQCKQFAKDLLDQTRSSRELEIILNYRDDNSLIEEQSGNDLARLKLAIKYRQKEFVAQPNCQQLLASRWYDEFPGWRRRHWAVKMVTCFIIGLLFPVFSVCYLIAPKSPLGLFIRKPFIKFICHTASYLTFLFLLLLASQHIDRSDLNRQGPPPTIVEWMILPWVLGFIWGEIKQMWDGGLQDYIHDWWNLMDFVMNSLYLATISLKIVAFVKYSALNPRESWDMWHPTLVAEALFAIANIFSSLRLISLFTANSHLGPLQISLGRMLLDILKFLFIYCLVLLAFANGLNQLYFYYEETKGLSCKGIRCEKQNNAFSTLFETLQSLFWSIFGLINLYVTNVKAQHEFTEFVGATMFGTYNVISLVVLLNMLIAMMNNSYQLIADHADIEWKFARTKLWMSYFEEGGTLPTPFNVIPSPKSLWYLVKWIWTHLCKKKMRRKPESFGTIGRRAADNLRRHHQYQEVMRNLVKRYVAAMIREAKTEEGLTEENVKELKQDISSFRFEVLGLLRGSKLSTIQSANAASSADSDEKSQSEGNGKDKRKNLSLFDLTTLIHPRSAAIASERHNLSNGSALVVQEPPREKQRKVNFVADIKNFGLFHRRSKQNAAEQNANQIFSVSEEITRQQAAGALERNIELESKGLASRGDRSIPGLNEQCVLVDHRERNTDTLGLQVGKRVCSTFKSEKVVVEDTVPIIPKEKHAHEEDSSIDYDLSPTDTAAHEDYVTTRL
# cells = type: functional
# [19] = Vero E6 cell cytotoxicity, dose response, cytotoxicity control for non-replicating M. tuberculosis project, secondary assay (AID 492998); type: functional, VeroE6; details: Vero C1008
# [20] = THP-1 cell cytotoxicity, dose response, cytotoxicity control for non-replicating M. tuberculosis project (AID 489025); type: functional
# Vero [21] = assay: cells; type: functional; details: Chlorocebus sabaeus
# Vero [22] = assay: cells; type: functional, cell-based; details: Chlorocebus sabaeus
# Trypsin = Trypsin (Sus scrofa, UniProt P00761); assay: trypsin protease activity blockade – biochemical, quenched peptide fluorescence, cherry-pick, selectivity assay for Rce1 protease inhibitor project, dose response (AID 488789)
# [23] = biological target: T5, Alkaline phosphatase, tissue-nonspecific isozyme (Homo sapiens, UniProt P05186); assay: potency against alkaline phosphatase TNAP – biochemical, luminescent, dose response, SAR follow-up (AID 1056)
# T5 sequence (P05186 whole entry): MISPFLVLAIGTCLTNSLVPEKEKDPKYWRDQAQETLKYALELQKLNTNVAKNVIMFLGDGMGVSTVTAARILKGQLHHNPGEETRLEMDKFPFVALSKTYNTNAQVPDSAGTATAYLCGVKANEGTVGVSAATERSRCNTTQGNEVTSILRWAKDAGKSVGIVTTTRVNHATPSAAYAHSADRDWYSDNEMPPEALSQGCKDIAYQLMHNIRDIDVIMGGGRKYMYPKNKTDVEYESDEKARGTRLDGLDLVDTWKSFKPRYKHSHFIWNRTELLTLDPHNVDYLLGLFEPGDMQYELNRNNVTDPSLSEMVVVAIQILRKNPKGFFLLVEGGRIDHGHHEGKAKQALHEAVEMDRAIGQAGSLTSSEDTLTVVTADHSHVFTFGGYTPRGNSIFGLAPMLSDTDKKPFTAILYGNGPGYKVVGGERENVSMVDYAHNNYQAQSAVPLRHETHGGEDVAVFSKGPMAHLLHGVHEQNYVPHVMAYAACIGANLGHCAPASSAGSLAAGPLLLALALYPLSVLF
# [24] = biological target: Alkaline phosphatase, placental type (Homo sapiens, UniProt P05187); assay: human placental alkaline phosphatase inhibition – biochemical, luminescence, confirmation (AID 1512); type: functional
# Chain of Alkaline phosphatase, placental type (P05187 whole entry): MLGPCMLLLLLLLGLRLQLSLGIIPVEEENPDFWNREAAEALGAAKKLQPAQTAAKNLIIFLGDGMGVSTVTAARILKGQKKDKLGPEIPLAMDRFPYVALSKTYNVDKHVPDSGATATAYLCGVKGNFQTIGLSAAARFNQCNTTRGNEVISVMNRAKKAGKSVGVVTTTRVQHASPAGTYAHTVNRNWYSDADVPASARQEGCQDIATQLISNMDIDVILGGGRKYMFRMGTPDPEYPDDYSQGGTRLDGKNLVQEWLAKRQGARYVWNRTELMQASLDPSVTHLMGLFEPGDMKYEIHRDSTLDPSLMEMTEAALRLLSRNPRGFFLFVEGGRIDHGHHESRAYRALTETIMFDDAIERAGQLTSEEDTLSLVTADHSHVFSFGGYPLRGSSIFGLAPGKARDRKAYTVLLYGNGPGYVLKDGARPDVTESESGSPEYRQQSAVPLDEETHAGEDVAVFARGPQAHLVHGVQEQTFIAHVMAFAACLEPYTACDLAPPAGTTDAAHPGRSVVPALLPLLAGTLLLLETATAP
# Chain of CAAX prenyl protease 2 (Q03530 whole entry): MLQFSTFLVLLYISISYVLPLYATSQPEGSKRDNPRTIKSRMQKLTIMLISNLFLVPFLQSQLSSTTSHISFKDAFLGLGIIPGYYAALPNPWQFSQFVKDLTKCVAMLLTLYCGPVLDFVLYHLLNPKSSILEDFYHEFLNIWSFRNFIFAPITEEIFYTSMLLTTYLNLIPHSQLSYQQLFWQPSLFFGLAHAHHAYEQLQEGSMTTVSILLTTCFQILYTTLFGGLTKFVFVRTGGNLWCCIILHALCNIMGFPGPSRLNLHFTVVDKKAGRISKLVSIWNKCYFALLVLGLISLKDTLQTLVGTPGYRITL
# Chain of Neurotensin receptor type 1 (P30989 whole entry): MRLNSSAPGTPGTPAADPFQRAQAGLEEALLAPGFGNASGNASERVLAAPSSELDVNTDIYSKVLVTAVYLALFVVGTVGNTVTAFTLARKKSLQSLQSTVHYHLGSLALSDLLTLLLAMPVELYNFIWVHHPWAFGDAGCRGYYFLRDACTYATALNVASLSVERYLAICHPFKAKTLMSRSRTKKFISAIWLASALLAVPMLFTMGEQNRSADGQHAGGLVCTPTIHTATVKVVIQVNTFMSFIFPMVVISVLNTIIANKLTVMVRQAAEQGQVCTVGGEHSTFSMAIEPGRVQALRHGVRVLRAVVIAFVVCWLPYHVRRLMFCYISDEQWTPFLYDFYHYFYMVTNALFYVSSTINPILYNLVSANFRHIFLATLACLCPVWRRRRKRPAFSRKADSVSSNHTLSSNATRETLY
# Chain of NACHT, LRR and PYD domains-containing protein 3 (Q96P20 whole entry, the tested form may be a part): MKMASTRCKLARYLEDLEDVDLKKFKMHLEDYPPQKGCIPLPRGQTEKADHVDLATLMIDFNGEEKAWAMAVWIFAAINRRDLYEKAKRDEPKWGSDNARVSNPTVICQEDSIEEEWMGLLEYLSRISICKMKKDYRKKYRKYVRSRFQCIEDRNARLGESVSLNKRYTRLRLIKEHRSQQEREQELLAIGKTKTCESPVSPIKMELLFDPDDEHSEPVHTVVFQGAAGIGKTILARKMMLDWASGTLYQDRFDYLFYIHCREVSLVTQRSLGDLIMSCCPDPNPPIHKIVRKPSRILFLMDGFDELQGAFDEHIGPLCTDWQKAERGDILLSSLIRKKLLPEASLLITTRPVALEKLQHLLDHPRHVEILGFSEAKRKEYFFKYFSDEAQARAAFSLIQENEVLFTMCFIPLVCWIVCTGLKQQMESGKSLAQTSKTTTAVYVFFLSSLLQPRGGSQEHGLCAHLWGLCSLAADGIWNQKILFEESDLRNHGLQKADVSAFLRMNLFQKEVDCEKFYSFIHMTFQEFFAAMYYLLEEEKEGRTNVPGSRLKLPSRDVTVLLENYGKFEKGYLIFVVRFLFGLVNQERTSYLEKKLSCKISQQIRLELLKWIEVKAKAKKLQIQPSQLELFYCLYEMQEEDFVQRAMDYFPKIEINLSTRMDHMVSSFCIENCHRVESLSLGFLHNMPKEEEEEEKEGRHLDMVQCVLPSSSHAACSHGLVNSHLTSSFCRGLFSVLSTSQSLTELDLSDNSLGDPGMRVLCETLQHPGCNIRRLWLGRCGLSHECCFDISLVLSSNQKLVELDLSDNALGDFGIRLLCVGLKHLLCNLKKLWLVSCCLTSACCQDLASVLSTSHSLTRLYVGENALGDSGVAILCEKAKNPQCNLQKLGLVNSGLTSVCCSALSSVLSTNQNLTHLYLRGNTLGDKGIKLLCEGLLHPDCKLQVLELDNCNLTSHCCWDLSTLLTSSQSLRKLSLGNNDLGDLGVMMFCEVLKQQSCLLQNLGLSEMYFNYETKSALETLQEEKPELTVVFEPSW
# Chain of Trypsin (P00761 whole entry): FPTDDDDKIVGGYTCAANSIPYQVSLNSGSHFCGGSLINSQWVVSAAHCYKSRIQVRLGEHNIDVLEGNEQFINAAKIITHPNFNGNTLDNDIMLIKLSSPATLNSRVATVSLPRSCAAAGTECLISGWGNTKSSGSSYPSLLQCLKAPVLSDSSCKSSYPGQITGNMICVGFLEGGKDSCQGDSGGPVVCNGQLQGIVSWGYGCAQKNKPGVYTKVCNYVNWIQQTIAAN
# Chain of Eukaryotic translation initiation factor 4E (P63073 whole entry, the tested form may be a part): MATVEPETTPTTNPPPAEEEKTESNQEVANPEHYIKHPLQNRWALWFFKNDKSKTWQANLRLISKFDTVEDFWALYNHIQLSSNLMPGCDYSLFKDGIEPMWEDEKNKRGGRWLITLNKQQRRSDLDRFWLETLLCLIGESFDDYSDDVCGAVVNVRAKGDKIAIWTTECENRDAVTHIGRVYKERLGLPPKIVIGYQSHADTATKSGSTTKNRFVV
compound,measurement,setting,value
Cc1cc(C)n(-c2nc(Nc3ccccc3C(F)(F)F)nc(-n3nc(C)cc3C)n2)n1,AC50,[1],5.49 µM (active)
same,EC50,Streptococcus,8.12 µM (active)
same,EC50,[2],5.15 µM (active)
same,EC50,[3],26 µM (inactive)
same,EC50,Streptokinase A,> 150 µM (not active)
same,AC50,[4],58.1 µM (active)
same,CC50,[5],12.4 µM (active)
same,CC50,[6],3.77 µM (active)
same,AC50,[7],5.19 µM (active)
same,AC50,INS1,4.01 µM (active)
CCCOC(=O)CCCN1C(=O)/C(=C2\SC(=S)N(CCCC(=O)OCCC)C2=O)SC1=S,EC50,[8],> 55.7 µM (not active)
same,EC50,[9],> 55.7 µM (not active)
O=C(O)CNc1ccccc1C(=O)O,AC50,CAAX prenyl protease 2,11.3 µM (active)
Cc1cccc(OCc2n(C)c3ccccc3[n+]2CC(=O)OC2CC(C)CCC2C(C)C)c1 (centres undefined),EC50,[10],> 60 µM (not active)
same,EC50,[3],8.85 µM (active)
same,EC50,[11],0.736 µM (active)
same,CC50,[5],18.8 µM (active)
same,EC50,[12],0.565 µM (active)
same,EC50,[13],11.2 µM (inconclusive)
same,AC50,INS1,3.61 µM (active)
same,IC50,[14],> 20 µM (inactive)
same,AC50,[15],3.49 µM (active)
Cc1ccc(NC(=O)CN2C(=O)S/C(=C/c3ccc(-c4cccc(C(=O)O)c4)o3)C2=O)cc1,IC50,[16],50 µM (inactive)
CCOC(=O)c1ccc2c(c1)nc(COc1ccc(OC)cc1)n2CC,IC50,[17],> 100 µM (inactive)
CC(C)Cn1c(S(=O)(=O)O)nc2ccccc21,EC50,[8],> 55.7 µM (not active)
same,EC50,[9],> 55.7 µM (not active)
CCCOc1ccc(C(=O)NNC(=S)NC(=O)c2cccs2)cc1,EC50,[18],3.76 µM (active)
same,IC50,cells,0.5 µM (active)
same,EC50,[11],0.391 µM (active)
same,EC50,[13],18.5 µM (active)
same,CC50,[19],6.29 µM (active)
same,CC50,[20],5.22 µM (active)
same,IC50,[17],8.96 µM (active)
same,CC50,Vero [21],15.6 µM (active)
same,IC50,Vero [22],> 25 µM (active)
N#Cc1c(Cl)nc(Cl)c2c1CCN(Cc1ccccc1)C2,AC50,CAAX prenyl protease 2,22.8 µM (active)
same,AC50,Trypsin,7.02 µM (active)
CCN(CC)c1ccc(C(=O)CSc2nc(C)cc(C)n2)cc1,IC50,[23],> 100 µM (inactive)
same,IC50,[24],> 100 µM (inactive)

# Reference: ChEMBL document CHEMBL1201862, “PubChem BioAssay data set” (2004)
